Measurements: patent publication US12194034B2, “Neutrophil exocytosis inhibitors” (IMMUNYX PHARMA LTD., priority 2021, dated 2025)

What was measured:
[1] = test system: human neutrophils; assay: NETosis assay; type: cell-based; settings: PMA 50 nM; for PMA-induced NETosis (NETosis positive events over time): T1/T3 10 μM, Trifluoperazine 100 ng/ml, Incucyte, 8 hr
Procedure: NETosis assay: The assay was carried out as previously described (Gupta et al., “A High-Throughput Real-Time Imaging Technique To Quantify NETosis and Distinguish Mechanisms of Cell Death in Human Neutrophils.”, J Immunol. 2018; 200:869-879, herein incorporated by reference in its entirety). Briefly, human neutrophils (2×10^6 cells/mL) were incubated for 5 minutes in the dark at RT with the NUCLEAR-ID Red DNA dye to stain nuclei (Enzo Life Sciences, Inc.). Cells were washed twice and resuspended in 1 mL of RPMI media. NUCLEAR-ID Red stained-neutrophils were plated (20,000 neutrophils per 100 μL per well) in a 96-well flat microplate. Stimulation of neutrophils NETosis was performed with PMA alone (50 nM), or with PMA in the presence of T1 compound (10 μM) or T3 compound (10 μuM). Unstimulated neutrophils served as a negative control. Neutrophils stimulated with PMA in the presence of Trifluoperazine (Stelazine, 100 ng/ml) were used as positive control. A final concentration of 0.1 μM of the membrane impermeable dsDNA fluorescent Sytox® Green nucleic acid stain (Life Technologies, Inc.) was added to the plated cells concomitantly with the stimuli. Neutrophils were imaged within 10 minutes of plating using phase contrast, red (800 ms exposure) and green (400 ms exposure) channels in the IncuCyte ZOOM™ platform (Essen BioScience, Inc.), located within a cell incubator at 37° C. with 5% CO2. Four image sets from distinct regions per well using a 20x dry objective lens were taken every 20-30 minutes, for 8 hr. For red channel, filters were applied to exclude objects below radius of 10 μm, fluorescence threshold of 0.5 red corrected units, and area of 15 μm^2. The filters applied the green channel excluded objects below the radius of 10 μm, fluorescence threshold of 1.00 green corrected units, and area of 100 μm^2. The green object count divided by the red object count represents the percentage of cells going through NETosis of total neutrophils. Liposome preparation: 2.5% DSPE-PEG3400-Maleimide liposomes were prepared in 250 mM ammonium sulfate. Liposomes were prepared at a molar ration of 56.5:41: 2.5:0.09 of HSPC: Cholesterol: DSPE-PEG-Mal: DilC18 (5)-DS.
Besides degranulation, neutrophils can kill pathogens extracellularly by releasing neutrophil extracellular traps (NETs), a process known as NETosis. Examination of NETosis induced by PMA was monitored by an Incucyte live-cell analysis system (FIG. 4). PMA treatment produced a steady increase in NETosis positive events starting at 2 hours after treatment. […] An increase was only observed after 4 hours when T1 was used and after 5 hours when T3 was used.

[2] = test system: human neutrophils; settings: cited from earlier work
[3] = test system: human neutrophils; settings: cited from earlier work; remark: listed apart in the source
[4] = test system: peripheral blood neutrophils; assay: LPS-induced inflammation mouse model, surface CD11b of peripheral blood neutrophils; type: in vivo, Balb/C mice; settings: LPS 1 mg/kg intraperitoneal; T3 (Z isomer) 3 mg/kg IV after 1 hour; blood after 3 hours
Procedure: The in-vivo effect of the three compositions of T3 was examined in a mouse model of inflammation. Balb/C mice were intraperitoneal injected with 1 mg/kg of LPS to induce inflammation and neutrophil toxicity. After 1 hour, T3—free molecule, T3 within a liposome, and T3 within a targeted liposome (TENN-T3) were IV administered at a final concentration of 3 mg/kg body weight. After 3 hours 0.5 mL of blood was drawn from each mouse and degranulation of peripheral blood neutrophils was evaluated by flow cytometry analysis of surface CD11b levels (neutrophils were identified by Ly6G staining). […] Overall, it is clear that T3 inhibits neutrophil activation in vivo and that targeting greatly enhances the effect.

[5] = test system: DSS colitis model mice; assay: DSS colitis mouse model; type: in vivo, C57BL/6 mice; settings: 3% DSS 5 days; 2.5 mg/kg of T3 on days 5, 7 and 9
Procedure: Next, the ability of T3 administration, to treat colitis, a disease caused at least in part by neutrophil cytotoxicity, was tested in a mouse model. Colitis was induced in C57BL/6 mice by administration of 3% dextran sulfate sodium (DSS) for 5 consecutive days in drinking water. 2.5 mg/kg of T3, in its three formulations, was administered on days 5, 7 and 9. Colitis induction by DSS caused a pronounced shortening of the mouse colon.
Lower doses of TENN-T3 were also tested. The targeted liposomes were administered at days 5 and 7 and mice were sacrificed on day 10 and colon length was measured.

[6] = test system: human neutrophils; settings: by inhibiting NAD(P)H; cited from earlier work

## CCN(CC)CCC(C)(C)C(=O)/C(=C/c1cccc([N+](=O)[O-])c1)n1cncn1 [T1]
[1]; compound 10 μM
  time after which an increase in NETosis was observed: > 4 h
[1]
  PMA-induced NETosis (NETosis positive events over time): initially inhibited an increase in NETosis completely

## CN1CCN(CCCN2c3ccccc3Sc3ccc(C(F)(F)F)cc32)CC1 [Trifluoperazine, reference compound]
[1]
  PMA-induced NETosis (NETosis positive events over time): steady reduction
[2]
  inhibition of NETosis (known): known inhibitor of NETosis

## CC(C)(C)C(=O)/C(=C/c1cccc([N+](=O)[O-])c1)n1cncn1 [Nexinhib-20]
[3]
  inhibition of degranulation (known): known to inhibit degranulation

## CN1CCC(N2CCC(C(=O)/C(=C/c3cccc([N+](=O)[O-])c3)n3cncn3)CC2)CC1 [T3]
[4]
  reduction in degranulation (surface CD11b of blood neutrophils): moderate but not statistically significant reduction
[1]; compound 10 μM
  NETosis events compared with control: very similar to control
  time after which an increase in NETosis was observed: > 5 h
[1]
  PMA-induced NETosis (NETosis positive events over time): initially inhibited an increase in NETosis completely
[5]
  colon length: comparable to a negative control

## c1ccc2c(c1)[I+]c1ccccc1-2 [DPI, Diphenylenciodonium]
[6]
  ROS production (known effect): nearly completely abolish ROS production
